Experimental data: PubChem BioAssay (NCI)
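Five concentrations, 48 hours, 96-well plates. GI50 is the concentration that inhibits growth by half. TGI marks complete inhibition of growth.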

Legend:
Experiment in all cases: DTP human tumour cell line panel, 48 h
[1] = test system: CAKI-1 renal
[2] = test system: HT29 colon
[3] = test system: K-562 leukemia
[4] = test system: NCI-H460 lung
[5] = test system: SF-268 CNS
[6] = test system: SN12C renal
[7] = test system: SNB-19 CNS
[8] = test system: SW-620 colon
[9] = test system: UACC-62 melanoma
[10] = test system: UO-31 renal

| Compound | TGI [1] [µM] | TGI [2] [µM] | TGI [3] [µM] | TGI [4] [µM] | TGI [5] [µM] | TGI [6] [µM] | TGI [7] [µM] | TGI [8] [µM] | TGI [9] [µM] | TGI [10] [µM] | GI50 [1] [µM] | GI50 [2] [µM] | GI50 [3] [µM] | GI50 [4] [µM] | GI50 [5] [µM] | GI50 [6] [µM] | GI50 [7] [µM] | GI50 [8] [µM] | GI50 [9] [µM] | GI50 [10] [µM] |
| --- | --- | --- | --- | --- | --- | --- | --- | --- | --- | --- | --- | --- | --- | --- | --- | --- | --- | --- | --- | --- |
| N=Nc1c(OC(=O)Nc2ccccc2)[nH]c2ccccc12 | 32.8 | 96.2 | > 100 | 25.7 | > 100 | 48.7 | 63 | > 100 | 35.5 | 25.6 |  |  |  |  |  |  |  |  |  |  |
| COC(=O)[C@H]1[C@H]2C[C@@H]3c4[nH]c5cc(OC)ccc5c4CCN3C[C@H]2C[C@@H](OC(=O)c2cc(OC)c(OC)c(OC)c2)[C@@H]1OC | 36 | 29.8 | 29.3 | 59.9 | > 100 |  | 41 | > 100 | 36.9 | 43.5 |  |  |  |  |  |  |  |  |  |  |
| COc1cc(N2CCN(C(C)C)CC2)ccc1Nc1nc(Nc2cccc3ncccc23)c2cc[nH]c2n1 | > 25 | 5.54 | 18.4 | > 23.5 | 15.4 | > 25 | > 25 | 14.9 | 8.53 | 11.6 | 10 | 1.5 | 5.34 | 6.16 | 5.21 | 15.7 | 8.99 | 3.6 | 4.06 | 3.79 |
| CN(C)c1ccc2c(c1)CN1C(=O)c3ccccc3C1=N2 |  | > 100 |  | > 100 |  | > 100 | > 100 | > 100 | > 100 | > 100 |  | > 100 |  | > 100 |  | > 100 | > 100 | > 100 | > 100 | > 100 |
| CC(C)(C)[Si](C)(C)OCC1CCC(n2cnc3c(=O)[nH]cnc32)O1 (centres undefined) | > 100 | > 100 | > 100 | > 100 | > 100 | > 100 | > 100 | > 100 | > 100 | > 100 |  |  |  |  |  |  |  |  |  |  |
| COc1ccc(CN2C(=O)C(Cc3cc(OC)c(OC)c(C)c3OC)NC(=O)/C2=C/c2cc(OC)c(OC)c(C)c2OC)cc1 (centres undefined) |  | 66.2 | > 100 | 57 | > 100 | > 100 |  | > 100 | > 100 | 74 |  |  |  |  |  |  |  |  |  |  |
| CCNC(C)(C)C(SS)c1ccc(Br)cc1 (centres undefined) | > 100 | 69.3 | > 100 | > 100 | > 100 | > 100 | > 100 | 56.2 | > 100 | > 100 |  |  |  |  |  |  |  |  |  |  |
| CC1(C)OC(=O)[C@@](C)([C@H](O)c2ccccc2)O1 | > 100 | > 100 | > 100 | > 100 | > 100 | > 100 | > 100 | > 100 | > 100 | > 100 |  |  |  |  |  |  |  |  |  |  |
| O=C(c1ccccc1)C(c1ccccc1)C1(O)C(=O)Nc2ccccc21 (centres undefined) | > 100 | > 100 | > 100 | > 100 | > 100 | > 100 | > 100 | > 100 | > 100 | > 100 |  |  |  |  |  |  |  |  |  |  |
| COc1ccc(C[n+]2c3ccccc3n3c4ccc(N)cc4ccc32)c(OC)c1OC |  | 33.2 | > 100 | 18.2 | 15.5 | 11 | 15.8 | 36.5 | 10.9 | > 100 |  | 4.63 | 4.87 | 3.54 | 2.42 | 0.626 | 1.42 | 8.39 | 2.62 | 40.1 |
| Cc1c(C)c2c(c(C)c1NC(=O)/C=C\C(=O)O)CCC(C)(CCCC(C)CCCC(C)CCCC(C)C)O2 (centres undefined) | 3.12 | 8.24 | 7.16 | 2.96 | 3.08 | 3.3 | 3.47 | 3.25 | 3.22 | 2.55 | 1.49 | 2.61 | 2.3 | 1.45 | 1.67 | 1.73 | 1.94 | 1.66 | 1.8 | 1.27 |
| CC(C)N(C(=O)C12C3C4C5C3C1(C(=O)N(C(C)C)C(C)C)C5(C#N)C42)C(C)C (centres undefined) | > 100 | > 100 | 73 | > 100 | > 100 | > 100 | > 100 | > 100 | > 100 | > 100 |  |  |  |  |  |  |  |  |  |  |
| Cc1cc2cccnc2c2ncccc12 | 0.758 | 16 |  | 2.54 | 27.7 | > 100 | > 100 | 27.9 | 9.19 | 4.15 | 0.244 | 1.69 |  | 0.508 | 0.739 | 1.18 | 2.27 | 2.34 | 1.28 | 0.411 |
| CC(=O)OCCOCNC(=S)N/N=C/c1ccc2ccccc2n1 |  | > 100 | > 100 | > 100 | > 100 | > 100 | > 100 | > 100 | 47.6 | > 100 |  |  |  |  |  |  |  |  |  |  |
| O=C(/C=C1\C(=O)N(Cc2ccc([N+](=O)[O-])cc2)c2ccccc21)c1ccc(OCCN2CCCCC2)cc1 | 2.26 | 2.88 | 2.2 | 3.68 | 3.32 |  | 2.92 |  | 2.79 | 2.7 | 1.07 | 1.4 | 0.415 | 1.87 | 1.58 |  | 1.56 |  | 1.44 | 1.4 |
| Nc1ncnc2c1ncn2C1OC(CSC(F)(F)F)C(O)C1O (centres undefined) | > 100 | > 100 | > 100 | > 100 | > 100 | > 100 |  | > 100 | > 100 | > 100 |  |  |  |  |  |  |  |  |  |  |
| CN1CCN(CCCOc2cccc3nc(Nc4ccc(Cl)c(F)c4)ccc23)CC1 | 8.47 | 2.8 |  | 3.7 | 3.46 | 16 | 3.53 | 3.71 | 4.1 | 3.32 | 2.53 | 1.41 |  | 1.91 | 1.72 | 4.16 | 1.86 | 1.97 | 2.05 | 1.57 |
